Patent US20240101531A1, “PYRIDINAMINE DERIVATIVES AND THEIR USE AS POTASSIUM CHANNEL MODULATORS” (Xenon Pharmaceuticals Inc., priority 2022, published 2024)
Where a name gives a salt, the structure may show the parent alone.

target: human KV7.2/KV7.3 (Homo sapiens (Human), UniProt O43525+O43526); assay: Potassium flux assay (IPG-2 AM dye); format: cell-based; conditions: TREX HEK 293 or HEK 293 cells expressing human KV7.2/KV7.3; arithmetic mean values
How it was run: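 EC50 from 16 concentrations (2-fold dilutions, top 30 μM), scaled between DMSO baseline and a known KV7.x modulator maximum. Signal is IPG-2 AM fluorescence (ex 530/em 558 nm) after 10 mM KCl challenge buffer addition, following 20 min room-temperature compound exposure of HEK 293 or TREX HEK 293 cells stably expressing human KV7.2/KV7.3.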

SMILES	EC50
CC(C)C1(COc2ccc3c(Nc4ccc(Cl)nc4)nccc3c2)COC1 [Example 152, N-(6-chloropyridin-3-yl)-6-((3-isopropyloxetan-3-yl)methoxy)isoquinolin-1-amine]	< 1 µM
N#CC1(COc2cnc3c(Nc4cnc(Cl)nc4)nccc3c2)CC1 [Example 254, 1-(((8-((2-chloropyrimidin-5-yl)amino)-1,7-naphthyridin-3-yl)oxy)methyl)cyclopropane-1-carbonitrile]	< 1 µM
CC1(C)CC[C@@H](COc2ccc3c(Nc4ccc(Cl)nc4)nccc3c2)O1 [Example 405, (S)-N-(6-chloropyridin-3-yl)-6-((5,5-dimethyltetrahydrofuran-2-yl)methoxy)isoquinolin-1-amine]	1 to 10 µM
O[C@H]1C[C@H](Oc2ccc3c(Nc4ccc(Cl)nc4)nccc3c2)C1 [Example 96, (1r,3r)-3-((1-((6-chloropyridin-3-yl)amino)isoquinolin-6-yl)oxy)cyclobutan-1-ol]	1 to 10 µM
CC1(CCOc2ccc3c(Nc4ccc(Cl)nc4)nccc3c2)COC1 [Example 98, N-(6-chloropyridin-3-yl)-6-(2-(3-methyloxetan-3-yl)ethoxy)isoquinolin-1-amine]	1 to 10 µM
FC1(F)CC(Oc2ccc3c(Nc4ccc(Cl)nc4)nccc3c2)C1 [Example 412, N-(6-chloropyridin-3-yl)-6-(3,3-difluorocyclobutoxy)isoquinolin-1-amine]	1 to 10 µM
Cc1ncc(Nc2nccc3cc(OCc4c[nH]nc4C)ccc23)cn1 [Example 396, 6-((3-methyl-1H-pyrazol-4-yl)methoxy)-N-(2-methylpyrimidin-5-yl)isoquinolin-1-amine]	< 1 µM
O=C(N[C@@H]1CCC[C@H](Oc2ccc3c(Nc4cnc(Cl)nc4)nccc3c2)C1)C(F)(F)F [Example 375, N-((1R,3S)-3-((1-((2-chloropyrimidin-5-yl)amino)isoquinolin-6-yl)oxy)cyclohexyl)-2,2,2-trifluoroacetamide]	1 to 10 µM
O=C1OCCN1CCOc1ccc2c(Nc3ccc(Cl)nc3)nccc2c1 [Example 107, 3-(2-((1-((6-chloropyridin-3-yl)amino)isoquinolin-6-yl)oxy)ethyl)oxazolidin-2-one]	1 to 10 µM
CC(=O)N1CC(COc2ccc3c(Nc4ccc(Cl)nc4)nccc3c2)C1 [Example 309, 1-(3-(((1-((6-chloropyridin-3-yl)amino)isoquinolin-6-yl)oxy)methyl)azetidin-1-yl)ethan-1-one]	1 to 10 µM
Clc1ccc(Nc2nccc3cc(OCc4cc[nH]n4)ccc23)cn1 [Example 391, 6-((1H-pyrazol-3-yl)methoxy)-N-(6-chloropyridin-3-yl)isoquinolin-1-amine]	1 to 10 µM
Clc1ncc(Nc2nccc3cc(OCc4cn[nH]c4)ccc23)cn1 [Example 381, 6-((1H-pyrazol-4-yl)methoxy)-N-(2-chloropyrimidin-5-yl)isoquinolin-1-amine]	< 1 µM
Cc1cn(C)nc1COc1ccc2c(Nc3ccc(Cl)nc3)nccc2c1 [Example 204, N-(6-chloropyridin-3-yl)-6-((1,4-dimethyl-1H-pyrazol-3-yl)methoxy)isoquinolin-1-amine]	1 to 10 µM
Clc1ccc(Nc2nccc3cccnc23)cn1 [Example 31, N-(6-chloropyridin-3-yl)-1,7-naphthyridin-8-amine formate]	1 to 10 µM
Cc1n[nH]cc1COc1ccc2c(Nc3ccc(Cl)nc3)nccc2c1 [Example 393, N-(6-chloropyridin-3-yl)-6-((3-methyl-1H-pyrazol-4-yl)methoxy)isoquinolin-1-amine]	< 1 µM
Clc1ccc(Nc2nccc3cc(OCc4cnn5c4OCCC5)ccc23)cn1 [Example 84, N-(6-chloropyridin-3-yl)-6-((6,7-dihydro-5H-pyrazolo[5,1-b][1,3]oxazin-3-yl)methoxy)isoquinolin-1-amine]	10 to 30 µM
Clc1ccc(Nc2nccc3cc(OCn4cccn4)ccc23)cn1 [Example 82, 6-((1H-pyrazol-1-yl)methoxy)-N-(6-chloropyridin-3-yl)isoquinolin-1-amine]	1 to 10 µM
